The results in this text go back to patent US9012443B2 (Amgen Inc., priority 2011, dated 2015).

The target of experiment [1] is T1, Nav 1.7 (Homo sapiens (Human), UniProt Q15858). Description: Nav 1.7 IWQ in vitro assay (IonWorks Quattro population patch-clamp). To be noted: for IC50: 293 cells stably transfected with Nav 1.7. It counts as cell-based. How it is done:
Nav 1.7 or Nav 1.5 IWQ In Vitro Assay
293 Cells stably transfected with either Nav 1.7 or Nav 1.5 were recorded in population patch-clamp mode with the IonWorks® Quattro automated electrophysiology system in accordance with the manufacturer's specifications (Molecular Devices, LLC, Sunnyvale, Calif.). Sodium channel currents were measured in response to a train of depolarizations that induced successively greater inactivation.
Cells were then left unclamped for a period of 3 to 8 minutes while a single concentration of test compound was added. Cells were then reclamped and put through the same voltage protocol. Current at the end of the 26th pulse to −20 mV was subtracted from the peak current evoked by the 26th pulse to −20 mV to correct for leak current. Percent block was calculated for each concentration in duplicate, and IC50 curves were fitted to percent block as a function of concentration.

For experiment [2], the target named is T1, Nav 1.7. Description: Nav 1.7 in vitro PX assay (PatchXpress whole cell voltage clamp). It is filed as cell-based. Conditions: 293 cells, human Nav1.7, partially inactivated state; read-out: Nav1.7 PX IC50 IP. The protocol:
Nav 1.7 In Vitro PX Assay
293 cells stably transfected with human Nav1.7 were recorded in whole cell voltage clamp mode with the PatchXpress automated electrophysiology system (Molecular Devices, LLC, Sunnyvale, Calif.). Compound effects were measured on a partially inactivated state of the sodium channel. Cells were clamped to a holding potential yielding 20 to 50% inactivation. To elicit sodium current, channels were activated by pulsing to −10 mV for 20 msec. […] A single concentration of test compound was applied to cells for a duration of 3 minutes. Peak sodium current was measured at the end of the compound addition period to determine percent inhibition. Three to five cells were tested per concentration, and IC50 curves were fitted to percent inhibition as a function of concentration.

[3] abbreviates: second part of table, read-out: Nav1.7 IWQ IC50 IP.
[4] abbreviates: first part of table, read-out: Nav 1.7 IWQ IC50.

T1 sequence (Q15858 whole entry): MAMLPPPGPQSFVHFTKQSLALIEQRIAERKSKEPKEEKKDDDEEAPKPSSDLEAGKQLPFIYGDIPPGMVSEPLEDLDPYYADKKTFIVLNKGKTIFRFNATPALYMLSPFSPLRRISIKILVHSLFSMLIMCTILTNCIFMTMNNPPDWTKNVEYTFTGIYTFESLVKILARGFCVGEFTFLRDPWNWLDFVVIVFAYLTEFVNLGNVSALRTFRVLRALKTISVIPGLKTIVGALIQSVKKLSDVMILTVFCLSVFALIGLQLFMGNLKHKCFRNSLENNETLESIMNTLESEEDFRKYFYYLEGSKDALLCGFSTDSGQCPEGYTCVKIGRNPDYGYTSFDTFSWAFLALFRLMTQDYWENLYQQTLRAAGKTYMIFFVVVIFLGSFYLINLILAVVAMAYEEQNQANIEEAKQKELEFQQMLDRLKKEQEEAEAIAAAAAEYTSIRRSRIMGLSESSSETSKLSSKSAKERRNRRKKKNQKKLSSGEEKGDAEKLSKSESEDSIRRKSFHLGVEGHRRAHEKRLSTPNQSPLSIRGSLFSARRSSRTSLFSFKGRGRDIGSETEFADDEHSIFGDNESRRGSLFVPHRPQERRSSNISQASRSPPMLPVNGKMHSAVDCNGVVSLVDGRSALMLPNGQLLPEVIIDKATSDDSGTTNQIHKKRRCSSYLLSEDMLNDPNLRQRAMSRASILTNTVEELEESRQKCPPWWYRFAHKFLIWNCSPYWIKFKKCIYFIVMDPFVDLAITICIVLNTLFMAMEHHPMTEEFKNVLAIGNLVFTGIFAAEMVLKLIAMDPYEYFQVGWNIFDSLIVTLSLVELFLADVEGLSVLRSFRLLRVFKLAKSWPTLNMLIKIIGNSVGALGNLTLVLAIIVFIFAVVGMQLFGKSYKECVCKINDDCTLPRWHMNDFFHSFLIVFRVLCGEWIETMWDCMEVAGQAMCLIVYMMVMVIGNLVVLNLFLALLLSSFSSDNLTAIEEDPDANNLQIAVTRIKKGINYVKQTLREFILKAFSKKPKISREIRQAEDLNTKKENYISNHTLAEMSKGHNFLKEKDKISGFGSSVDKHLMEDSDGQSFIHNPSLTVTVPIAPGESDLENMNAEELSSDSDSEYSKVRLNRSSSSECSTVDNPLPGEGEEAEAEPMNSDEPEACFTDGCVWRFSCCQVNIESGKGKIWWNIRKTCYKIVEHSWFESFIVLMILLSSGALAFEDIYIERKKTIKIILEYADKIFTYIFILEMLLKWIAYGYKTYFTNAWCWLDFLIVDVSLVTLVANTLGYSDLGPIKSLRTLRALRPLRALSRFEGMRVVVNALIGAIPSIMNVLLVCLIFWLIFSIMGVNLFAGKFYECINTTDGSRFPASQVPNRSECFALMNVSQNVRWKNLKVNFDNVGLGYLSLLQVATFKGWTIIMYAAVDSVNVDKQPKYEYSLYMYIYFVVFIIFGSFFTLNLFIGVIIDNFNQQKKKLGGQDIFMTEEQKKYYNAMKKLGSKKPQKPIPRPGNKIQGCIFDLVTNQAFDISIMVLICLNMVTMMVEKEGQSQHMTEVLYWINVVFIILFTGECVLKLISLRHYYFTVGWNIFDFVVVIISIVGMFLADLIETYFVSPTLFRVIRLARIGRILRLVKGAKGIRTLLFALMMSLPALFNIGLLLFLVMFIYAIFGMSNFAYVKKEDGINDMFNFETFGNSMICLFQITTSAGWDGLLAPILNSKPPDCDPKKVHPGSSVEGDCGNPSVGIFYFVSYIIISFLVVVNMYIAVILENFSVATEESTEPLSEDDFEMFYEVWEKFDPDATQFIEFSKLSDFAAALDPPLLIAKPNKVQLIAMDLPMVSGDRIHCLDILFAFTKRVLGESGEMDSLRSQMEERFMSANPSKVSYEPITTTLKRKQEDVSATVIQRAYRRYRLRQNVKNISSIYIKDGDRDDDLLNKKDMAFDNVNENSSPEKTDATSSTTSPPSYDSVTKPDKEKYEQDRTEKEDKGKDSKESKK

In the case of `N#CC1(COc2nccc3cc(S(=O)(=O)Nc4ccncn4)ccc23)CC1` [Example 135, 1-((1-CYANOCYCLOPROPYL)METHOXY)-N-(PYRIMIDIN-4-YL)ISOQUINOLINE-6-SULFONAMIDE], at Nav 1.7 [1] (setting [3]), the half-maximal inhibitory concentration (IC50) amounted to 3300 nM.
As to `CN(C)C(=O)C1CN(c2cccc3cc(S(=O)(=O)Nc4ncns4)ccc23)CCO1` (stereo not drawn) [Example 19], the IC50 on Nav 1.7 [1] (setting [4]) is 1180 nM.
For `CC(C)(O)C1CN(c2cccc3cc(S(=O)(=O)Nc4ncns4)ccc23)CCO1` (stereo not drawn) [Example 20], the IC50 on Nav 1.7 [1] (setting [4]) came out at 3140 nM.
On to `COc1cc(-c2ccncc2)ccc1-c1nccc2cc(S(=O)(=O)Nc3ccncn3)ccc12` [Example 451, 1-(2-METHOXY-4-(PYRIDIN-4-YL)PHENYL)-N-(PYRIMIDIN-4-YL)ISOQUINOLINE-6-SULFONAMIDE], for which the “Nav1.7 Single Point Data IWQ (at […]) (%)” value on Nav 1.7 [1] (at […]) is 27.5%.
`Cc1cc(C#N)ccc1-c1nccc2cc(S(=O)(=O)Nc3ccncn3)ccc12` [Example 159]: on Nav 1.7 [1] (setting [3]), the IC50 was found to be 4830 nM.
Turning to `O=S(=O)(Nc1ncco1)c1ccc2c(-c3ccc(C(F)(F)F)cc3Cl)cccc2c1` [Example 49], the 50% inhibitory concentration (IC50) on Nav 1.7 [1] (setting [4]) was 4870 nM.
Regarding `COc1ccccc1-c1ncc(O)c2cc(S(=O)(=O)Nc3nccs3)ccc12` [Example 234, 4-HYDROXY-1-(2-METHOXYPHENYL)-N-(THIAZOL-2-YL)ISOQUINOLINE-6-SULFONAMIDE 2,2,2-TRIFLUOROACETATE], the half-maximal inhibitory concentration (IC50) on Nav 1.7 [2] amounted to 980 nM.
Regarding `COc1cc(-c2ccc(C)o2)ccc1-c1nccc2cc(S(=O)(=O)Nc3ccncn3)ccc12` [Example 461], on Nav 1.7 [2], the half-inhibitory concentration (IC50) came out at 1780 nM.
With `COc1cc(C(F)(F)F)ccc1-c1ccnc2c(C)c(S(=O)(=O)Nc3nccs3)ccc12` [Example 328, 4-(2-METHOXY-4-(TRIFLUOROMETHYL)PHENYL)-8-METHYL-N-(THIAZOL-2-YL)QUINOLINE-7-SULFONAMIDE], the IC50 on Nav 1.7 [2] came to 6870 nM.
Same read-out and setting: then `COc1nc(C)ccc1-c1nccc2cc(S(=O)(=O)Nc3nccs3)ccc12` [Example 412, 1-(2-METHOXY-6-METHYLPYRIDIN-3-YL)-N-(THIAZOL-2-YL)ISOQUINOLINE-6-SULFONAMIDE], with 1030 nM; and `COc1cc(-c2ccc3[nH]ccc3c2)ccc1-c1nccc2cc(S(=O)(=O)Nc3ccncn3)ccc12` [Example 489, 1-(4-(1H-INDOL-5-YL)-2-METHOXYPHENYL)-N-(PYRIMIDIN-4-YL)ISOQUINOLINE-6-SULFONAMIDE], with 1830 nM; and `COc1cc(-c2ccc(F)nc2)ccc1-c1nccc2cc(S(=O)(=O)Nc3ccncn3)ccc12` [Example 352, 1-(4-(6-FLUOROPYRIDIN-3-YL)-2-METHOXYPHENYL)-N-(PYRIMIDIN-4-YL)ISOQUINOLINE-6-SULFONAMIDE], with 1870 nM.
On the same count and under the same terms, under `O=S(=O)(Nc1nccs1)c1ccc2c(-c3ccccc3Cl)nccc2c1` [Example 179, 1-(2-CHLOROPHENYL)-N-(THIAZOL-2-YL)ISOQUINOLINE-6-SULFONAMIDE] stands 1300 nM; under `Cc1cc(C#N)ccc1-c1ncnc2cc(S(=O)(=O)Nc3nccs3)ccc12` [Example 542], 5020 nM; under `COc1cc(C(F)(F)F)ccc1-c1nccc2cc(S(=O)(=O)Nc3cnsn3)ccc12` [Example 388, 1-(2-METHOXY-4-(TRIFLUOROMETHYL)PHENYL)-N-(1,2,5-THIADIAZOL-3-YL)ISOQUINOLINE-6-SULFONAMIDE], 1750 nM.
Take `COc1nc(-c2ccc(F)c(F)c2)ccc1-c1nccc2cc(S(=O)(=O)Nc3ccncn3)ccc12` [Example 499, 1-(6-(3,4-DIFLUOROPHENYL)-2-METHOXYPYRIDIN-3-YL)-N-(PYRIMIDIN-4-YL)ISOQUINOLINE-6-SULFONAMIDE]: the concentration for half-maximal inhibition (IC50) on Nav 1.7 [2] stood at 830 nM.
Same read-out and setting: then `COc1cc(C#N)ccc1-c1ncc(F)c2cc(S(=O)(=O)Nc3ncns3)ccc12` [Example 395, 1-(4-CYANO-2-METHOXYPHENYL)-4-FLUORO-N-(1,2,4-THIADIAZOL-5-YL)ISOQUINOLINE-6-SULFONAMIDE], with 761 nM; and `COc1cc(C(F)(F)F)ccc1-c1ccnc2cc(S(=O)(=O)Nc3ccncn3)ccc12` [Example 279, 4-(2-METHOXY-4-(TRIFLUOROMETHYL)PHENYL)-N-(PYRIMIDIN-4-YL)QUINOLINE-7-SULFONAMIDE], with 580 nM; and `COc1nc(OCC(C)C)ccc1-c1nccc2cc(S(=O)(=O)Nc3ccncn3)ccc12` [Example 418, 1-(6-ISOBUTOXY-2-METHOXYPYRIDIN-3-YL)-N-(PYRIMIDIN-4-YL)ISOQUINOLINE-6-SULFONAMIDE], with 2130 nM.
Still for that read-out and setting: then `COc1ccc(C2=CCOCC2)cc1-c1nccc2cc(S(=O)(=O)Nc3ccncn3)ccc12` [Example 353, 1-(5-(3,6-DIHYDRO-2H-PYRAN-4-YL)-2-METHOXYPHENYL)-N-(PYRIMIDIN-4-YL)ISOQUINOLINE-6-SULFONAMIDE], with 5170 nM; and `COc1cc(C(F)(F)F)ccc1-c1nccc2cc(S(=O)(=O)Nc3ncc(F)cn3)ccc12` [Example 426], with 2490 nM; and `COc1cc(OCC(F)(F)F)ccc1-c1nccc2cc(S(=O)(=O)Nc3ccncn3)ccc12` [Example 362, 1-(2-METHOXY-4-(2,2,2-TRIFLUOROETHOXY)PHENYL)-N-(PYRIMIDIN-4-YL)ISOQUINOLINE-6-SULFONAMIDE], with 1070 nM.
As for `COc1cc(C(F)F)c(Cl)cc1-c1nccc2cc(S(=O)(=O)Nc3ccncn3)ccc12` [Example 457, 1-(5-CHLORO-4-(DIFLUOROMETHYL)-2-METHOXYPHENYL)-N-(PYRIMIDIN-4-YL)ISOQUINOLINE-6-SULFONAMIDE], the IC50 at Nav 1.7 [2] worked out at 828 nM.
The same measure, in the same setting: then `COc1cc(C#N)ccc1-c1nc(C)nc2cc(S(=O)(=O)Nc3nccs3)ccc12` [Example 517, 4-(4-CYANO-2-METHOXYPHENYL)-2-METHYL-N-(THIAZOL-2-YL)QUINAZOLINE-7-SULFONAMIDE], with 1280 nM; and `COc1cc(C(F)(F)F)ccc1-c1nccc2cc(S(=O)(=O)N=C3NC(=O)CS3)ccc12` [Example 248, (E/Z)-1-(2-METHOXY-4-(TRIFLUOROMETHYL)PHENYL)-N-(4-OXOTHIAZOLIDIN-2-YLIDENE)ISOQUINOLINE-6-SULFONAMIDE], with 910 nM; and `COc1cc(C(F)(F)F)ccc1-c1nccc2cc(S(=O)(=O)Nc3cc(Cl)ncn3)ccc12` [Example 422, N-(6-CHLOROPYRIMIDIN-4-YL)-1-(2-METHOXY-4-(TRIFLUOROMETHYL)PHENYL)ISOQUINOLINE-6-SULFONAMIDE], with 835 nM.
As to `COc1ncc(C)cc1-c1nccc2cc(S(=O)(=O)Nc3nccs3)ccc12` [Example 411, 1-(2-METHOXY-5-METHYLPYRIDIN-3-YL)-N-(THIAZOL-2-YL)ISOQUINOLINE-6-SULFONAMIDE], at Nav 1.7 [2], the 50% inhibitory concentration (IC50) came out at 685 nM.
Regarding `COc1cc(F)ccc1-c1ncc(O)c2cc(S(=O)(=O)Nc3nccs3)ccc12` [Example 233, 1-(4-FLUORO-2-METHOXYPHENYL)-4-HYDROXY-N-(THIAZOL-2-YL)ISOQUINOLINE-6-SULFONAMIDE 2,2,2-TRIFLUOROACETATE], the 50% inhibitory concentration (IC50) at Nav 1.7 [2] came out at 510 nM.
The same measure, in the same setting: under `COc1ccccc1-c1n[nH]c(=O)c2cc(S(=O)(=O)Nc3ncns3)ccc12` [Example 508, 1-(2-METHOXYPHENYL)-4-OXO-N-(1,2,4-THIADIAZOL-5-YL)-3,4-DIHYDROPHTHALAZINE-6-SULFONAMIDE] stands 1300 nM.
On the same count and under the same terms, then `COc1cc(C2(F)COC2)ccc1-c1nc(C)nc2cc(S(=O)(=O)Nc3nccs3)ccc12` [Example 516, 4-(4-(3-FLUOROOXETAN-3-YL)-2-METHOXYPHENYL)-2-METHYL-N-(THIAZOL-2-YL)QUINAZOLINE-7-SULFONAMIDE], with 1050 nM.
